Results as given in patent publication US20240130367A1, “PLANT GROWTH PROMOTERS” (University of Durham, priority 2020, published 2024).
Counter-ions that a name gives are not always drawn.

System: Arabidopsis thaliana wild-type
Assay: Hypocotyl growth assay under reduced light
Assay type: in vivo
Conditions: hypocotyl, 100 μM; for New length (cm) / New Length: three days; for New length (cm): trials 1, 2, 3 and SAM each with own DMSO control; for New Length: in cm
Text: Arabidopsis thaliana wild-type seeds were from laboratory stocks of Columbia (Col-0) and Landsberg erecta (Ler-0) accessions. Arabidopsis thaliana is a dicot. The mutants of gid1 (J. Griffiths, et al., Plant Cell, 2006, 18, 3399-3414) were obtained from Dr. Steve Thomas (Rothamsted Research, UK) and were in a Col-0 background, whilst the della quintuple mutant (S. H. Feng et al. Nature, 2008, 451: 475-479) and ga1-5 (I. Fridborg et al. Plant Cell, 1999, 11: 1019-1031) were in a Ler-0 background and was obtained from the Nottingham Arabidopsis Stock Centre (NASC). The A. thaliana line expressing RGA-GFP (A. L. Silverstone et al. The Plant Cell, 2001, 13: 1555-1565), Col-0 background was obtained from Prof. Keith Lindsey (Durham University, UK). Seeds were plated out 1×MS medium pH 5.8 (T. Murashige and F. Skoog (1962) Physiologia Plantarum 15: 473-497) in petri dishes with a concentration of either 0.8% or 1.2% (w/v) phytoagar for root and hypocotyl measurements, respectively. After sowing seeds were stratified on plates at 4° C. for a minimum of 48 h to achieve synchronous germination. Seedlings were grown for either 7 or 2 days for root and hypocotyl measurements, respectively, prior to treatment with chemicals. For hypocotyl measurements, seeds were sown on nylon mesh (acid resistant monofilament nylon filter mesh fabric; GZ, model number H20M). Seedling were grown in a Percival (CU-36L5D, CLF plant climatics, Emersacker, Germany) with a photoperiod of 16/8 h with a light intensity of either 150 μmol m^2 s^−1 or 50 μmol m^2 s^−1 for root and hypocotyl measurements, respectively, and a temperature of 20±1° C.
After growing as described above seedlings for root assays were transferred to 1.2% (w/v) agar plates containing each chemical at a final concentration of 100 μM (the addition of the chemicals was performed when media had cooled to 50° C. after autoclaving), with an equivalent concentration of DMSO as control. At this stage the positions of the root tips were marked on the petri dish. The plants were subsequently grown vertically and after a further 5 days images of the plates were scanned and the root growth that occurred during the 5 days on chemicals was measured using ImageJ software. 18 seedlings were measured for each treatment. For hypocotyl measurements the assay performed was adapted from de Lucas et al. (2008, supra). After growing seedlings as described above, the nylon mesh was transferred across to the plates containing chemical. The plants were then placed in vertical orientation for three days under reduced light intensity (by covering plates with 2 layers of 80 g·m^2 white paper) before the plates were scanned. The measurement of hypocotyl was done using ImageJ software. At least 15 seedlings were measured for each plate.
To determine the mechanism of A1 action via the GA/DELLA signaling pathway, the response of A1 in a series of GA synthesis/signalling mutants was investigated. For these assays the focus was on hypocotyl growth, because it is well established that DELLA can inhibit the binding of PIFs to their target promoter leading to a reduction in GA-regulated hypocotyl growth (A. Castillon, H. Shen and E. Huq (2007) Trends in Plant Science, 12: 514-521.; de Lucas et al. 2008, supra; S. H. Feng et al. 2008, supra. To establish the use of A1 in this assay, hypocotyl growth was first tested by growing the seedlings on agar plates containing A1, with GA and PAC used as positive and negative controls, respectively, for three days in reduced light conditions to achieve a balance between maximum and minimum hypocotyl growth. […] Having established the hypocotyl assay, DELLA-dependence of the A1 effect was then confirmed genetically. To test this, a mutant line that lacks all DELLA (GAI, RGA, RGL1, RGL2 and RGL3) function was used.
The effect of additional compounds on hypocotyl growth was investigated using the same methods as described above (100 μM of each compound was used). […]

[1] = relative to the DMSO control of the same trial

SMILES | New length (cm) | Relative growth (cm) [1] | New Length | Relative growth (cm) (relative to DMSO control)
COc1ccc(S(=O)(=O)NCCN)cc1.Cl [JAR71, N-(2′-aminoethyl)-4-methoxybenzene-1-sulfonamide Hydrogen Chloride] | 0.331 cm | 0.3734 |  | 
NCCNS(=O)(=O)c1ccccc1F [JAR480, N-(2′-aminoethyl)-2-fluorobenzene-1-sulfonamide Hydrochloride] |  |  | 0.8424 | 0.2289
CCCCCCOc1ccc(S(=O)(=O)NCCN)cc1.Cl [JAR72, N-(2′-aminoethyl)-4-hexoxybenzene-1-sulfonamide Hydrogen Chloride] | 0.195 cm | −0.1909 |  | 
CCCCCOc1ccc2ccccc2c1S(=O)(=O)NCCN.Cl [JAR68, N-(2′-aminoethyl)-2-pentoxynaphthalene-1-sulfonamide Hydrogen Chloride] | 0.197 cm | −0.1826 |  | 
NCCNS(=O)(=O)c1cccc2cccnc12 [JAR13, N-(2′-aminoethyl)quinoline-8-sulfonamide] | 0.212 cm | −0.09787 |  | 
CCOCCOc1c(Cl)cc(S(=O)(=O)NCCN)c2ccccc12.Cl [JAR141, N-(2-azaniumylethyl)-3-chloro-4-(2-ethoxyethoxy)naphthalene-1-sulfonamide Chloride] | 0.4387 cm | 0.09026 |  | 
Cl.NCCNS(=O)(=O)c1ccc2c3c(cccc13)C(=O)N2 [JAR67, N-(2′-aminoethyl)-1,8-naphtholactam-5-sulfonamide Hydrogen Chloride] | 0.187 cm | −0.2241 |  | 
Cc1ccc(S(=O)(=O)NCCN)cc1.Cl [JAR142, 4-methyl-N-(2′-aminoethyl)benzene-1-sulfonamide Hydrogen Chloride] | 0.5868 cm | 0.4584 |  | 
O=S(=O)(NCCO)c1cccc2ccccc12 [JAR88, N-(2-hydroxyethyl)naphthalene-1-sulfonamide] | 0.2827 cm | −0.2975 |  | 
CCOCCOc1ccc(S(=O)(=O)NCCN)c2ccccc12.Cl [JAR145, N-(2′-aminoethyl)-4-(2″-ethoxyethoxy)naphthalene-1-sulfonamide Hydrogen Chloride] | 0.6424 cm | 0.5965 |  | 
C=CCN(CCN)S(=O)(=O)c1cccc2ccccc12.Cl [SAM1, N-(2′-aminolethyl)-N-(prop-2″-en-1′-yl)naphthalene-1-sulfonamide Hydrogen Chloride] | 0.193 cm | −0.0203 |  | 
CCOCCOc1ccc2ccccc2c1S(=O)(=O)NCCN.Cl [JAR144, N-(2′-aminoethyl)-2-(2″-ethoxyethoxy)naphthalene-1-sulfonamide Hydrogen Chloride] | 0.6007 cm | 0.4927 |  | 
COc1cccc(S(=O)(=O)NCCN)c1.Cl [JAR490, N-(2′-aminoethyl)-3-methoxybenzene-1-sulfonamide Hydrochloride] |  |  | 0.8299 | 0.2107
NCCCNS(=O)(=O)c1cccc2ccccc12 [JAR481, N-(3′-aminopropyl)naphthalene-1-sulfonamide Hydrochloride] |  |  | 0.8072 | 0.1775
CCOC(=O)CN(CCN)S(=O)(=O)c1cccc2ccccc12.Cl [SAM3, ethyl 2″-[N-(2′-aminoethyl)naphthalene-1-sulfonamido]acetate Hydrogen Chloride] | 0.272 cm | 0.3807 |  | 
CCCc1ccc(S(=O)(=O)NCCN)cc1 [JAR489, N-(2-aminoethyl)-4-propylbenzene-1-sulfonamide] |  |  | 0.9133 | 0.3323

SMILES | New length (cm) | Relative growth (cm) [1] | New Length | Relative growth (cm) (relative to DMSO control)
Cl.NCCNS(=O)(=O)c1ccc(-c2ccccc2)cc1 [JAR479, N-(2′-aminoethyl)-[1,1″-biphenyl]-4-sulfonamide Hydrochloride] |  |  | 0.7771 | 0.1335
CC(C)(C)c1ccc(S(=O)(=O)NCCN)cc1 [JAR484, N-(2′-aminoethyl)-4-tent-butylbenzene-1-sulfonamide Hydrochloride] |  |  | 0.8713 | 0.271
COc1ccc(S(=O)(=O)NCCN)c2ccccc12.Cl [JAR33, N-(2′-aminoethyl)-4-methoxynaphthalene-1-sulfonamide Hydrogen Chloride] | 0.2986 cm | 0.2705 |  | 
NCCNS(=O)(=O)c1cccc(F)c1 [JAR478, N-(2-aminoethyl)-3-fluorobenzene-1-sulfonamide Hydrochloride] |  |  | 0.8424 | 0.2289
CNCCNS(=O)(=O)c1cccc2ccccc12 [JAR493, N-[2′-(methylamino)ethyl]naphthalene-1-sulfonamide Hydrochloride] |  |  | 0.897 | 0.3085
COc1ccc2ccccc2c1S(=O)(=O)NCCN.Cl [JAR36, N-(2′-aminoethyl)-2-methoxynaphthalene-1-sulfonamide Hydrogen Chloride] | 0.329 cm | 0.4 |  | 
Cl.NCCNS(=O)(=O)c1cccc2ccncc12 [JAR31, N-(2′-aminoethyl)isoquinoline-8-sulfonamide Hydrogen Chloride] | 0.274 cm | 0.166 |  | 
CN(CCN)S(=O)(=O)c1cccc2ccccc12 [JAR491, N-(2′-aminoethyl)-N-methylnaphthalene-1-sulfonamide] |  |  | 0.8285 | 0.2085
Cl.NCCN(Cc1ccccc1)S(=O)(=O)c1cccc2ccccc12 [SAM2, N-(2′-aminoethyl)-N-benzylnaphthalene-1-sulfonamide Hydrogen Chloride] | 0.191 cm | −0.03046 |  | 
CCOC(=O)C(C)N(CCN)S(=O)(=O)c1cccc2ccccc12.Cl (stereo not drawn) [SAM4, ethyl 2-[N-(2-azaniumylethyl)naphthalene-1-sulfonamido]propanoate Chloride] | 0.228 cm | 0.1574 |  | 
Cl.NCCNS(=O)(=O)C1CCCCC1 [JAR488, N-(2′-aminoethyl)cyclohexanesulfonamide Hydrochloride] |  |  | 0.668 | −0.02555
Cl.NCCNS(=O)(=O)c1cccc2ncccc12 [JAR30, N-(2′-aminoethyl)-quinoline-5-sulfonamide Hydrogen Chloride] | 0.333 cm | 0.417 |  | 
Cl.NCCNS(=O)(=O)c1cccc2cnccc12 [JAR32, N-(2′-aminoethyl)isoquinoline-5-sulfonamide Hydrogen Chloride] | 0.202 cm |  |  | 
CNc1ccc(S(=O)(=O)NCCN)c2nonc12.Cl [JAR143, 7-(methylamino)-N-(2′-aminoethyl)-2,1,3-benzoxadiazole-4-sulfonamide Hydrogen Chloride] | 0.2847 cm | −0.2925 |  | 
COc1ccccc1S(=O)(=O)NCCN.Cl [JAR69, N-(2′-aminoethyl)-2-methoxybenzene-1-sulfonamide Hydrogen Chloride] | 0.316 cm | 0.3112 |  | 
NCCNS(=O)(=O)c1ccc([N+](=O)[O-])cc1 [JAR483, N-(2′-aminoethyl)-4-nitrobenzene-1-sulfonamide Hydrochloride] |  |  | 0.8707 | 0.2701
